Where two headings read alike, the source gives them in different places.
Tested on: bovine viral diarrhea virus (BVDV)
Settings: 60 minutes, 20° C., Reed and Muench
Experimental: In this example bovine viral diarrhea virus (BVDV), biotype 1 (CPE), genotype 1 Host: Madin-Darby bovine kidney (MDBK) cells were inactivated according to the methods discussed in Example 2.
Bovine viral diarrhea virus (BVDV), biotype I (CPE), genotype 1 was used in these studies which infect Madin-Darby bovine kidney (MDBK) cells. […] These samples (0.5 mL) were loaded into pre-spun sephacryl columns. The columns were spun for 4 minutes at 1000 rpm. The samples were aseptically removed from the columns and ten-fold serial dilutions were then prepared in minimal essential medium (MEM) and adsorbed on the monolayer of host cells seeded in tissue culture plates for one hour at 37±2° C. and 5±1% C02. Post-adsorption, the monolayers were washed with EBSS and replaced with fresh MEM and incubated for 5-7 days at 37±2° C. and 5±1% C02. The presence of infectious viruses was determined as described below: post-incubation, the plates were washed with 3× with PBS and fixed with TC grade alcohol and stained with direct porcine polyclonal anti-BVDV conjugated antibody. The stained plate were scored using UV microscopy using a Nikon Diaphot microscope, and monolayers that contained one or more BVDV surface antigen positive […] were scored positive. Four wells per dilution were inoculated and results were recorded as the FFFUD50 calculated by Reed and Munch (1938).

Measured: FFFUD50/mL (log10)

paraformaldehyde
0 FFFUD50/mL (log10): 2.5% paraformaldehyde column 1 | 2.5% paraformaldehyde column 2 | 2.5% paraformaldehyde column 3 | 2.5% paraformaldehyde column 4
